Results as given in patent US12077503B2, “Substituted cyclic amides and their use as herbicides” (FMC CORPORATION, priority 2015, dated 2024).

Columns and labels:
Format in all cases: in vivo
corn (Zea mays) = experiment: Test A postemergence
Excerpt: (§1) Seeds of plant species selected from barnyardgrass (Echinochloa crus-galli), Kochia (Kochia scoparia), ragweed (common ragweed, Ambrosia elatior), ryegrass, Italian (Italian ryegrass, Lolium multiflorum), crabgrass, large (Digitaria sanguinalis), giant foxtail (Setaria faberii), green foxtail (Setaria viridis), morningglory (Ipomoea spp.), pigweed (Amaranthus retroflexus), velvetleaf (Abutilon theophrasti), wheat (Triticum aestivum), and corn (Zea mays) were planted into a blend of loam soil and sand and treated preemergence with a directed soil spray using test chemicals formulated in anon-phytotoxic solvent mixture which included a surfactant.
(§2) At the same time, plants selected from these crop and weed species and also blackgrass (Alopecurus myosuroides), and Galium (catchweed bedstraw, Galium aparine) were planted in pots containing the same blend of loam soil and sand and treated with postemergence applications of test chemicals formulated in the same manner. Plants ranged in height from 2 to 10 cm and were in the one- to two-leaf stage for the postemergence treatment. Treated plants and untreated controls were maintained in a greenhouse for approximately 10 d, after which time all treated plants were compared to untreated controls and visually evaluated for injury. Plant response ratings, summarized in Table A, are based on a 0 to 100 scale where 0 is no effect and 100 is complete control. A dash (-) response means no test result.

[1] = test system: pigweed (Amaranthus retroflexus); experiment: Test A postemergence
Excerpt: as §1, §2

[2] = test system: ryegrass, Italian (Italian ryegrass, Lolium multiflorum); experiment: Test A postemergence
Excerpt: as §1, §2

[3] = test system: blackgrass (Alopecurus myosuroides); experiment: Test A postemergence
Excerpt: as §1, §2

Kochia (Kochia scoparia) [4] = experiment: Test A postemergence
Excerpt: as §1, §2

[5] = test system: barnyardgrass (Echinochloa crus-galli); experiment: Test A postemergence
Excerpt: as §1, §2

[6] = test system: giant foxtail (Setaria faberii); experiment: Test A postemergence
Excerpt: as §1, §2

[7] = test system: ragweed (common ragweed, Ambrosia elatior); experiment: Test A postemergence
Excerpt: as §1, §2

[8] = test system: wheat (Triticum aestivum); experiment: Test A postemergence
Excerpt: as §1, §2

[9] = test system: Galium (catchweed bedstraw, Galium aparine); experiment: Test A postemergence
Excerpt: as §1, §2

[10] = test system: pigweed (Amaranthus retroflexus); experiment: Test A preemergence; conditions: Preemergence; for Plant response rating, Pigweed: 125 g ai/ha, visual injury after approximately 10 d, 0 to 100 scale where 0 is no effect and 100 is complete control; for Pigweed plant response rating (0 to 100 scale, 0 is no effect, 100 is complete control): 500 g ai/ha, visual injury approx. 10 d
Excerpt: as §1, §2

[11] = test system: ryegrass, Italian (Italian ryegrass, Lolium multiflorum); experiment: Test A preemergence; conditions: Preemergence; for Plant response rating, Ryegrass, Italian: 125 g ai/ha, visual injury after approximately 10 d, 0 to 100 scale where 0 is no effect and 100 is complete control; for Ryegrass, Italian plant response rating (0 to 100 scale, 0 is no effect, 100 is complete control): 500 g ai/ha, visual injury approx. 10 d
Excerpt: as §1, §2

Kochia (Kochia scoparia) [12] = experiment: Test A preemergence; conditions: Preemergence; for Plant response rating, Kochia: 125 g ai/ha, visual injury after approximately 10 d, 0 to 100 scale where 0 is no effect and 100 is complete control; for Kochia plant response rating (0 to 100 scale, 0 is no effect, 100 is complete control): 500 g ai/ha, visual injury approx. 10 d
Excerpt: as §1, §2

[13] = test system: barnyardgrass (Echinochloa crus-galli); experiment: Test A preemergence; conditions: Preemergence; for Plant response rating, Barnyardgrass: 125 g ai/ha, visual injury after approximately 10 d, 0 to 100 scale where 0 is no effect and 100 is complete control; for Barnyardgrass plant response rating (0 to 100 scale, 0 is no effect, 100 is complete control): 500 g ai/ha, visual injury approx. 10 d
Excerpt: as §1, §2

[14] = test system: giant foxtail (Setaria faberii); experiment: Test A preemergence; conditions: Preemergence; for Plant response rating, Foxtail, Giant: 125 g ai/ha, visual injury after approximately 10 d, 0 to 100 scale where 0 is no effect and 100 is complete control; for Foxtail, Giant plant response rating (0 to 100 scale, 0 is no effect, 100 is complete control): 500 g ai/ha, visual injury approx. 10 d
Excerpt: as §1, §2

[15] = test system: ragweed (common ragweed, Ambrosia elatior); experiment: Test A preemergence; conditions: Preemergence; for Plant response rating, Ragweed: 125 g ai/ha, visual injury after approximately 10 d, 0 to 100 scale where 0 is no effect and 100 is complete control; for Ragweed plant response rating (0 to 100 scale, 0 is no effect, 100 is complete control): 500 g ai/ha, visual injury approx. 10 d
Excerpt: as §1, §2

[16] = 125 g ai/ha, postemergence, visual rating after approx. 10 d, 0 to 100 scale (0 no effect, 100 complete control)
[17] = Postemergence, 500 g ai/ha, 0 to 100 scale where 0 is no effect and 100 is complete control

SMILES | Plant response rating, Corn (corn (Zea mays); [16]) | Plant response rating, Corn (corn (Zea mays); [17]) | Plant response rating, Pigweed [1, 16] | Plant response rating, Pigweed [1, 17] | Plant response rating, Ryegrass, Italian [2, 16] | Plant response rating, Ryegrass, Italian [2, 17] | Plant response rating, Blackgrass [3, 16] | Plant response rating, Blackgrass [3, 17] | Plant response rating, Kochia (Kochia (Kochia scoparia) [4]; [16]) | Plant response rating, Kochia (Kochia (Kochia scoparia) [4]; [17]) | Plant response rating, Barnyardgrass [5, 16] | Plant response rating, Barnyardgrass [5, 17] | Plant response rating, Foxtail, Giant [6, 16] | Plant response rating, Foxtail, Giant [6, 17] | Plant response rating, Ragweed [7, 16] | Plant response rating, Ragweed [7, 17] | Plant response rating, Wheat [8, 16] | Plant response rating, Wheat [8, 17] | Plant response rating, Galium [9, 16] | Plant response rating, Galium [9, 17] | also measured
CCc1cccc(C2CN(C)C(=O)C2C(=O)Nc2ccc(F)cc2F)c1 (stereo not shown) [Compound 570] | 60 | 80 | 20 | 20 | 50 | 80 | 60 | 80 | 50 | 70 | 100 | 100 | 90 | 90 | 0 | 0 | 30 | 60 | 50 | 60 | Plant response rating, Pigweed [10]: 40; Pigweed plant response rating (0 to 100 scale, 0 is no effect, 100 is complete control) [10]: 70; Plant response rating, Ryegrass, Italian [11]: 60; Ryegrass, Italian plant response rating (0 to 100 scale, 0 is no effect, 100 is complete control) [11]: 90; Plant response rating, Kochia (Kochia (Kochia scoparia) [12]): 60; Kochia plant response rating (0 to 100 scale, 0 is no effect, 100 is complete control) (Kochia (Kochia scoparia) [12]): 80; Plant response rating, Barnyardgrass [13]: 100; Barnyardgrass plant response rating (0 to 100 scale, 0 is no effect, 100 is complete control) [13]: 100; Plant response rating, Foxtail, Giant [14]: 100; Foxtail, Giant plant response rating (0 to 100 scale, 0 is no effect, 100 is complete control) [14]: 100; Plant response rating, Ragweed [15]: 0; Ragweed plant response rating (0 to 100 scale, 0 is no effect, 100 is complete control) [15]: 0
CN1CC(c2cccc(C(F)(F)F)c2)C(C(=O)Nc2ccc(F)cc2F)C1=O (stereo not shown) [Compound 571] | 60 | 80 | 20 | 30 | 60 | 60 | 70 | 80 | 30 | 60 | 90 | 100 | 90 | 90 | 0 | 0 | 60 | 70 | 50 | 70 | Plant response rating, Pigweed [10]: 30; Pigweed plant response rating (0 to 100 scale, 0 is no effect, 100 is complete control) [10]: 80; Plant response rating, Ryegrass, Italian [11]: 60; Ryegrass, Italian plant response rating (0 to 100 scale, 0 is no effect, 100 is complete control) [11]: 80; Plant response rating, Kochia (Kochia (Kochia scoparia) [12]): 60; Kochia plant response rating (0 to 100 scale, 0 is no effect, 100 is complete control) (Kochia (Kochia scoparia) [12]): 80; Plant response rating, Barnyardgrass [13]: 90; Barnyardgrass plant response rating (0 to 100 scale, 0 is no effect, 100 is complete control) [13]: 90; Plant response rating, Foxtail, Giant [14]: 90; Foxtail, Giant plant response rating (0 to 100 scale, 0 is no effect, 100 is complete control) [14]: 100; Plant response rating, Ragweed [15]: 0; Ragweed plant response rating (0 to 100 scale, 0 is no effect, 100 is complete control) [15]: 0
